Test results reported in patent US4316839A, “Imidazodiazepine derivatives” (Hoffman-La Roche Inc., priority 1979, dated 1982).

Tests used:
[1] = test system: diazepam effect in the pentetrazole test; assay: pentetrazole test: antagonism of the diazepam effect in mice; format: in vivo; conditions: for ED50: Mus musculus, po, mice, diazepam 5 mg/kg i.p. 1 hour and test compound 15 min before pentetrazole 120 mg/kg i.p.
Protocol: This property was used as a basis for the test described hereinafter which permits the determination of compounds which are capable of antagonising the central properties of 1,4-benzodiazepines which have tranquillising activity.
The antagonistic activity of the compounds tested, i.e. their ability to counteract the activity of diazepam in the pentetrazole test, is determined by counting the mice which suffer spasmodic seizures in this test.
(§1) In the following Table there are compiled the results which have been obtained with representative compounds of formula I. The ED50 value is given for each compound listed in the Table. The ED50 is the amount of the test compound in mg/kg (p.o.) which counteracts in 50% of the animals the diazepam effect in the foregoing test. Moreover, the Table contains the IC50 value (defined hereinbefore) for all test compounds listed therein as well as details concerning the acute toxicity of certain compounds (LD50 in mg/kg following single oral administration to mice).

[2] = molecular target: specific benzodiazepine receptors in the cerebral cortex; assay: inhibition of the binding of tritiated diazepam at the specific benzodiazepine receptors in the cerebral cortex
Protocol: The affinity of compounds of formula I to the central benzodiazepine receptors was determined according to the method described in Life Science 20, 2101-2110 (1977) and Science 198, 849-851 (1977). According to this method, the inhibition of the binding of tritiated diazepam at the specific benzodiazepine receptors in the cerebral cortex by test substances is ascertained. The IC50 ("50% inhibiting concentration") is that concentration of the test substance which brings about a 50 percent inhibition of the specific binding of the tritiated diazepam at the specific benzodiazepine receptors in the cerebral cortex.
as §1

[3] = acute toxicity following single oral administration to mice; conditions: mouse, in vivo
From the text: as §1

[4] = test system: central activities of diazepam; assay: antagonism of the central activities of diazepam (sleep/waking behaviour) in male albino rats; format: in vivo
From the text: Male albino rats (body weight about 165 g) are used for this test.

[5] = compounds of formula I with A = group (a)
[6] = thieno derivatives, A = group (b)

CN1Cc2c(C#N)ncn2-c2ccc(F)cc2C1=O [Example 7, 8-fluoro-5,6-dihydro-5-methyl-6-oxo-4H-imidazo[1,5-a][1,4]benzodiazepine-3-carbonitrile]
ED50 [1]: 4.2 mg/kg | IC50 [2, 5]: 93 µM

CCOC(=O)c1ncn2c1CN(C)C(=O)c1c(Cl)cccc1-2 [Example 13, ethyl 7-chloro-5,6-dihydro-5-methyl-6-oxo-4H-imidazo[1,5-a][1,4]benzodiazepine-3-carboxylate]
ED50 [1]: 0.48 mg/kg | IC50 [2, 5]: 3 µM

CCOC(=O)c1ncn2c1C1C=CCN1C(=O)c1c(F)cccc1-2 (stereo not shown) [Example 11, ethyl 8-fluoro-11,13a-dihydro-9-oxo-9H-imidazo[1,5-a]pyrrolo[2,1-c][1,4]benzodiazepine-1-carboxylate]
ED50 [1]: 1.8 mg/kg | LD50 [3]: 500 to 1000 mg/kg | IC50 [2, 5]: 2.1 µM

CCOC(=O)c1ncn2c1[C@@H]1CCCN1C(=O)c1cc(F)ccc1-2 [Example 12, ethyl (S)-7-fluoro-11,12,13,13a-tetrahydro-9-oxo-9H-imidazo[1,5-a]pyrrolo[2,1-c][1,4]benzodiazepine-1-carboxylate]
ED50 [1]: 8.9 mg/kg | IC50 [2, 5]: 6 µM

CC(C)OC(=O)c1ncn2c1[C@@H]1CCCN1C(=O)c1ccccc1-2 [Example 33, isopropyl (S)-11,12,13,13a-tetrahydro-9-oxo-9H-imidazo[1,5-a]pyrrolo[2,1-c][1,4]benzodiazepine-1-carboxylate]
ED50 [1]: 18.6 mg/kg | IC50 [2, 5]: 3 µM

CC(C)OC(=O)c1ncn2c1CN(C)C(=O)c1ccccc1-2 [Example 25, isopropyl 5,6-dihydro-5-methyl-6-oxo-4H-imidazo[1,5-a][1,4]benzodiazepine 3-carboxylate]
ED50 [1]: 7 mg/kg | IC50 [2, 5]: 12 µM

CCOC(=O)c1ncn2c1[C@@H]1CCCN1C(=O)c1c(Cl)cccc1-2 [Example 14, ethyl (S)-8-chloro-11,12,13,13a-tetrahydro-9-oxo-9H-imidazo[1,5-a]pyrrolo[2,1-c][1,4]benzodiazepine-1-carboxylate]
ED50 [1]: 1 mg/kg | LD50 [3]: 750 to 1500 mg/kg | IC50 [2, 5]: 1.7 µM

CCOC(=O)c1ncn2c1CN(C)C(=O)c1sccc1-2 [Example 36, ethyl 5,6-dihydro-5-methyl-6-oxo-4H-imidazo[1,5-a]thieno[2,3-f][1,4]diazepine-3-carboxylate]
ED50 [1]: 12.6 mg/kg | IC50 [2, 6]: 0.0011 µM

COC(=O)c1ncn2c1CN(C)C(=O)c1cc(F)ccc1-2 [Example 3, methyl 8-fluoro-5,6-dihydro-5-methyl-6-oxo-4H-imidazo[1,5-a][1,4]benzodiazepine-3-carboxylate]
ED50 [1]: 4.9 mg/kg | IC50 [2, 5]: 6 µM

CN1Cc2c(C#N)ncn2-c2ccccc2C1=O [Example 18, 5,6-dihydro-5-methyl-6-oxo-4H-imidazo[1,5-a][1,4]benzodiazepine-3-carbonitrile]
ED50 [1]: 2.6 mg/kg | LD50 [3]: 1250 mg/kg | IC50 [2, 5]: 100 µM

COC(=O)c1ncn2c1CN(C)C(=O)c1sccc1-2 [Example 37, methyl 5,6-dihydro-5-methyl-6-oxo-4H-imidazo[1,5-a]thieno[2,3-f][1,4]diazepine-3-carboxylate]
ED50 [1]: 0.83 mg/kg | IC50 [2, 6]: 0.0012 µM

COC(=O)c1ncn2c1[C@@H]1CCCN1C(=O)c1sccc1-2 [Example 35, methyl (S)-10,11,12,12a-tetrahydro-8-oxo-8H-imidazo[5,1-c]pyrrolo[1,2-a]thieno[3,2-e][1,4]diazepine-1-carboxylate]
ED50 [1]: 0.22 mg/kg | IC50 [2, 6]: 0.0021 µM

CCOC(=O)c1ncn2c1CN(C)C(=O)c1c(C)cccc1-2 [Example 28, ethyl 5,6-dihydro-5,7-dimethyl-6-oxo-4H-imidazo[1,5-a][1,4]benzodiazepine-3-carboxylate]
ED50 [1]: 7.1 mg/kg | IC50 [2, 5]: 5 µM

CC(C)OC(=O)c1ncn2c1CN(C)C(=O)c1cc(F)ccc1-2 [Example 4, isopropyl 8-fluoro-5,6-dihydro-5-methyl-6-oxo-4H-imidazo [1,5-a][1,4]benzodiazepine-3-carboxylate]
ED50 [1]: 6.6 mg/kg | LD50 [3]: > 5000 mg/kg | IC50 [2, 5]: 3.9 µM

CCOC(=O)c1ncn2c1[C@@H]1CCCN1C(=O)c1sccc1-2 [Example 34, ethyl (S)-10,11,12,12a-tetrahydro-8-oxo-8H-imidazo[5,1-c]pyrrolo[1,2-a]thieno[3,2-e][1,4]diazepine-1-carboxylate]
ED50 [1]: 1.3 mg/kg | IC50 [2, 6]: 0.0009 µM

CCOC(=O)c1ncn2c1C1C=CCN1C(=O)c1ccccc1-2 (racemic) [Example 43, ethyl (R,S)-11,13a-dihydro-9-oxo-9H-imidazo[1,5-a]pyrrolo[2,1-c][1,4]benzodiazepine-1-carboxylate]
ED50 [1]: 3.9 mg/kg | IC50 [2, 5]: 2.3 µM

CN1C(=O)CN=C(c2ccccc2)c2cc(Cl)ccc21 [diazepam, reference compound]
protection from spasmodic seizures in the pentetrazole test ([1]; diazepam 5 mg/kg i.p., more than 900 mice): protected all experimental animals from spasmodic seizures | falling asleep / rousing reflex ([4]; diazepam 5 mg/kg i.v.): fall asleep immediately, no longer show rousing reflex | sleep in the lateral position, duration ([4]; diazepam 5 mg/kg i.v.): at least 60 minutes | time to slowly wake up ([4]; diazepam 5 mg/kg i.v.): about 1.5 hours | falling asleep ([4]; diazepam 10 mg/kg i.p.): fall asleep within a few minutes | sleep duration ([4]; diazepam 10 mg/kg i.p.): 2 to 3 h

COC(=O)c1ncn2c1[C@@H]1CCCN1C(=O)c1ccccc1-2 [Example 31, methyl (S)-11,12,13,13a-tetrahydro-9-oxo-9H-imidazo[1,5-a]pyrrolo[2,1-c][1,4]benzodiazepine-1-carboxylate]
ED50 [1]: 3.5 mg/kg | LD50 [3]: 2000 to 4000 mg/kg | IC50 [2, 5]: 32 µM

CCOC(=O)c1ncn2c1[C@@H]1CCCN1C(=O)c1c(C)cccc1-2 [Example 29, ethyl (S)-11,12,13,13a-tetrahydro-8-methyl-9-oxo-9H-imidazo[1,5-a]pyrrolo[2,1-c]benzodiazepine-1-carboxylate]
ED50 [1]: 6.5 mg/kg | IC50 [2, 5]: 5 µM

CCOC(=O)c1ncn2c1CN(C)C(=O)c1c(F)cccc1-2 [Example 10, ethyl 7-fluoro-5,6-dihydro-5-methyl-6-oxo-4H-imidazo[1,5-a][1,4]benzodiazepine-3-carboxylate]
ED50 [1]: 2.1 mg/kg | LD50 [3]: > 5000 mg/kg | IC50 [2, 5]: 2 µM

CCOC(=O)c1ncn2c1CN(C)C(=S)c1ccccc1-2 [Example 27, ethyl 5,6-dihydro-5-methyl-6-thioxo-4H-imidazo[1,5-a][1,4]benzodiazepine-3-carboxylate]
ED50 [1]: 8.9 mg/kg | IC50 [2, 5]: 6 µM

CCOC(=O)c1ncn2c1CN(C)C(=S)c1cc(F)ccc1-2 [Example 6, ethyl 8-fluoro-5,6-dihydro-5-methyl-6-thioxo-4H-imidazo[1,5-a][1,4]benzodiazepine-3-carboxylate]
ED50 [1]: 6.3 mg/kg | IC50 [2, 5]: 2.5 µM

COC(=O)c1ncn2c1CN(C)C(=O)c1ccccc1-2 [Example 24, methyl 5,6-dihydro-5-methyl-6-oxo-4H-imidazo[1,5-a][1,4]benzodiazepine-3-carboxylate]
ED50 [1]: 13.5 mg/kg | IC50 [2, 5]: 9 µM

N#Cc1ncn2c1[C@@H]1CCCN1C(=O)c1ccccc1-2 [Example 42, (S)-11,12,13,13a-tetrahydro-9-oxo-9H-imidazo[1,5-a]pyrrolo[2,1-c][1,4]benzodiazepine-1-carbonitrile]
ED50 [1]: 12.1 mg/kg | IC50 [2, 5]: 31 µM
